Molecules are shown by their SMILES.

One data set deals with T1, RET M918T (Homo sapiens, UniProt P07949, M918T).
T1 construct: purchased Carna 08-508
In words: HTRF kinase activity inhibition, RET M918T. The format is biochemical. As to conditions: ATP at Km. An excerpt:
(§1) 2.2 Experimental Reagents: • RET enzyme was purchased from Carna Company, and the article number was 08-159; • RET M918T enzyme was purchased from Carna Company, and the article number was 08-508; • KIF5B-RET was purchased from SignalChem Company, the article number was R02-19FG-05; • CCDC6-RET was purchased from SignalChem Company, the article number was R02-19BG-05; • RET V804M enzyme was purchased from Thermofisher Company, and the article number was PV6223; • RET V804L enzyme was purchased from Thermofisher Company, and the article number was PV4397; • HTRF KinEASE-TK kit was purchased from Cisbio Company, and the article number was 62TK0PEC; • ATP was purchased from Thermofisher Company, and the article number was PV3227; • 384-well plate was purchased from PerkinElmer Company, and the article number was 6007290.
(§2) In this experiment, a homogeneous time-resolved fluorescence (HTRF) method was used for the detection of compounds on RET kinase activity.

A further data set concerns the target T2, CCDC6-RET (Homo sapiens, UniProt P07949).
T2 construct: purchased SignalChem R02-19BG-05; the other entry of the earlier key: CCDC6 (Q16204, Coiled-coil domain-containing protein 6)
T2 sequence (P07949 with tags, fused parts or gaps): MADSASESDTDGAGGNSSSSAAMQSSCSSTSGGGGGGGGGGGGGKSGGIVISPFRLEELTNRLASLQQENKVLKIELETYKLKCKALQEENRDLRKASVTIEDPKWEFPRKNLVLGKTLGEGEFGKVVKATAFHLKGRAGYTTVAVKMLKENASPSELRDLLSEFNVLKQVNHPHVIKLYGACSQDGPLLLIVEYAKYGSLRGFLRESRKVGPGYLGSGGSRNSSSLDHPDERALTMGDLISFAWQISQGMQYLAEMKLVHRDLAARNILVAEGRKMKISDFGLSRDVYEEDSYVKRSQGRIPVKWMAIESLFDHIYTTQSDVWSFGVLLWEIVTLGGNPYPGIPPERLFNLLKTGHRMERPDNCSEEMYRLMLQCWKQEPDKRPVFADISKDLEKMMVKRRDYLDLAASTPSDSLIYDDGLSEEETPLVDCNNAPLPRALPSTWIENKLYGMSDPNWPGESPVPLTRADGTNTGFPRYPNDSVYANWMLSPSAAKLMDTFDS
Briefly: HTRF kinase activity inhibition, CCDC6-RET. The settings on record: ATP at Km. In kind it is biochemical.
Text: as §1, §2

Another data set deals with T3, RET V804M (Homo sapiens, UniProt P07949, V804M).
T3 construct: purchased Thermofisher PV6223
In words: HTRF kinase activity inhibition, RET V804M. The format is biochemical. As to conditions: ATP at Km.
Text: as §1, §2

The next data set concerns the target T4, RET kinase (Homo sapiens, UniProt P07949).
T4 construct: purchased Carna 08-159
In words: HTRF kinase activity inhibition, RET wild-type. In kind it is biochemical. As to conditions: ATP at Km. In short, it runs like this:
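HTRF (KinEASE-TK) kinase assay with recombinant RET wild-type, RET V804M, RET V804L and KIF5B-RET enzymes plus ATP.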

Another data set addresses T5, KDR kinase (Homo sapiens, UniProt P35968).
T5 construct: purchased Carna 08-191
Briefly: HTRF kinase activity inhibition, KDR. The format is biochemical. The settings on record: for IC50: HTRF, ATP at Km; for Ratio (KDR/RET): KDR IC50 / RET IC50. In short, it runs like this: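 Inhibition of KDR kinase activity measured by homogeneous time-resolved fluorescence with a tyrosine-kinase KinEASE substrate kit and ATP.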

For data set [1], the system named is TT cells (MTC, RET C634W). In words: Inhibition of proliferation of TT cells (CellTiter-Glo, 72 h). The settings on record: Homo sapiens. In kind it is cell-based. In short, it runs like this: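 TT cells seeded overnight, then exposed to compound dilutions for 72 h at 37 °C, 5% CO2, with a solvent control. Viability read by CellTiter-Glo luminescence; IC50 from nonlinear regression of inhibition rate versus concentration.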

The nature of data set [2]: Balb/C mouse pharmacokinetics, oral 5 mg/kg. In kind it is in vivo, Balb/C mice. As to conditions: male, p.o. 5 mg/kg, plasma; for MRT: read-out: Average residence time MRT; for Cmax: read-out: Blood concentration Cmax; for AUC(0-t): read-out: Curve area AUC0-t; for AUC(0-inf): read-out: Curve area AUC0-∞; for half-life: read-out: Half-life t1/2 (converted); for Tmax: read-out: Peak time tmax. In short, it runs like this: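 Male Balb/C mice (6 per compound) were fasted overnight and dosed in 0.5% CMC-Na (1% Tween80) solution or suspension. EDTA-K2 plasma was sampled at 0, 0.5, 1, 2, 4, 6, 8 and 24 h. Compound levels were measured by LC/MS/MS after acetonitrile precipitation, and PK parameters were derived from the plasma profiles.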

T1 sequence (P07949 29-1114 M918T): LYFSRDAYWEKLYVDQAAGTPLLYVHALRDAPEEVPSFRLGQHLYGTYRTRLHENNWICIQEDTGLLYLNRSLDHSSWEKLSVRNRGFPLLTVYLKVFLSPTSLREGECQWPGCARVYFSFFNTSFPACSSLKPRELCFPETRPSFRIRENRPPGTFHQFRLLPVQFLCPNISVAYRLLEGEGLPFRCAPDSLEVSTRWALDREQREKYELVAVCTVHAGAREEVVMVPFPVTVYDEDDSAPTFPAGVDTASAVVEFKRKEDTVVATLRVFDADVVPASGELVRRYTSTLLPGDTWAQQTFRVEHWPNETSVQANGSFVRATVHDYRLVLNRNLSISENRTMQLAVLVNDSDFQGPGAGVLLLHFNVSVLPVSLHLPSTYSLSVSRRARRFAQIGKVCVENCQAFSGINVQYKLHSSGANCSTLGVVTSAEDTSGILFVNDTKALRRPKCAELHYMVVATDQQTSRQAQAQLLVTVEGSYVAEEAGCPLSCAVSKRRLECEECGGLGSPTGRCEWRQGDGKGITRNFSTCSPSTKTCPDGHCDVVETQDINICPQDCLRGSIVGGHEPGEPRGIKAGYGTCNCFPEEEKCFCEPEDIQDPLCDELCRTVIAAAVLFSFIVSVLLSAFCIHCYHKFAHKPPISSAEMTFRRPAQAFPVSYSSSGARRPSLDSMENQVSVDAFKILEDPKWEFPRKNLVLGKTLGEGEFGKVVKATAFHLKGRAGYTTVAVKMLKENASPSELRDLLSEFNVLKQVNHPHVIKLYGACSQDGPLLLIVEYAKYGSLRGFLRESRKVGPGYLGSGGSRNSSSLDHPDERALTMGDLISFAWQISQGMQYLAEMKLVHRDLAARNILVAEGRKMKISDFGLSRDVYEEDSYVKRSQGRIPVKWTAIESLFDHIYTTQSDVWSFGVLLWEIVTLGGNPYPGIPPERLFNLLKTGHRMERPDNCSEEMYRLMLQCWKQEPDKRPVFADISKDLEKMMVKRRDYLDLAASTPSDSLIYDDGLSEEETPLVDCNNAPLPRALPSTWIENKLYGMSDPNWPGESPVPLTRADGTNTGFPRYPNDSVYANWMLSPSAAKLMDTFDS
T4 sequence (P07949 29-1114): as the sequence (P07949 29-1114 M918T) above, with T890M counted along it
T3 sequence (P07949 29-1114 V804M): as the sequence (P07949 29-1114 M918T) above, with V776M, T890M counted along it
T5 sequence (P35968 20-1356): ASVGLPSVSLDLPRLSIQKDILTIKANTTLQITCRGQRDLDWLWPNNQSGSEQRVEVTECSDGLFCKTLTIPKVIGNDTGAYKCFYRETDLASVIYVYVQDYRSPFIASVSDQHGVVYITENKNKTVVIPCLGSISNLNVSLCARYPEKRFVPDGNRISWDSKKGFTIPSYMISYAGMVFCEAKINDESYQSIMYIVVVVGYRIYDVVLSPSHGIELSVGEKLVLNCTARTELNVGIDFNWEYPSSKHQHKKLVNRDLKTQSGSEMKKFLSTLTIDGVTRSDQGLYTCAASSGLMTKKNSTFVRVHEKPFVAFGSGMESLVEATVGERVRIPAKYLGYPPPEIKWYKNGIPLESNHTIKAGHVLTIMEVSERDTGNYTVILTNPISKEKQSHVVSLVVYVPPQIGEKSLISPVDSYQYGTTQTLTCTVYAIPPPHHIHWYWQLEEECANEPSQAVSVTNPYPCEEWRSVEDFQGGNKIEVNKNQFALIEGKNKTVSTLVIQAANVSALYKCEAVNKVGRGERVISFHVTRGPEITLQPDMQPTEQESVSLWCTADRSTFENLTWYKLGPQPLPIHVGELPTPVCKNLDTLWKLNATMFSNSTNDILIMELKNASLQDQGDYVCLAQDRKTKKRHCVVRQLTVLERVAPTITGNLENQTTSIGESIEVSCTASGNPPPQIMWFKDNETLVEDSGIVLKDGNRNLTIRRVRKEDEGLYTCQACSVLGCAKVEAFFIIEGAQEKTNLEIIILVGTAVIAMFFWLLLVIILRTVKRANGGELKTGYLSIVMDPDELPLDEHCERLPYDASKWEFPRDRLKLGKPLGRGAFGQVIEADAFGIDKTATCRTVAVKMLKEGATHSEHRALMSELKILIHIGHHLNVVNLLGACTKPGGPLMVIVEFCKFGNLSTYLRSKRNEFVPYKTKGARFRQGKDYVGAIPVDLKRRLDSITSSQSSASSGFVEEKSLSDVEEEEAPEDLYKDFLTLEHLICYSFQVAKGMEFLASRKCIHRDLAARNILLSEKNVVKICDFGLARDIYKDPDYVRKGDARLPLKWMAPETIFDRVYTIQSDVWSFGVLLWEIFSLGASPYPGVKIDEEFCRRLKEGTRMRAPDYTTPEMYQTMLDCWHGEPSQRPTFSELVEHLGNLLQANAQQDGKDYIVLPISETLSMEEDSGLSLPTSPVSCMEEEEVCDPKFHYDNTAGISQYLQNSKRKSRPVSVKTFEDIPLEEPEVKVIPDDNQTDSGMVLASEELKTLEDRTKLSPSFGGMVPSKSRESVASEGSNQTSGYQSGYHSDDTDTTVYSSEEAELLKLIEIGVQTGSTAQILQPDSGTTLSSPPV

For `C#C[C@](C)(O)COc1cc(-c2ccc(N3CC4CC(C3)N4Cc3ccc(OC)nc3)nc2)c2c(C#N)cnn2c1` [Embodiment 64, 6-(((S)-2-hydroxy-2-methylbut-3-yn-1-yl)oxy)-4-(6-(6-((6-methoxypyridin-3-yl)methyl)-3,6-diazabicyclo[3.1.1]heptan-3-yl)pyridin-3-yl)pyrazolo[1,5-a]pyridine-3-carbonitrile], half-maximal inhibition at RET M918T (IC50) required 0.17 nM. At CCDC6-RET, this compound had an IC50 of 1.74 nM. This compound had an IC50 on RET V804M of 3 nM. The compound also showed an IC50 against RET kinase of 0.38 nM. Further, on KDR kinase, the IC50 was found to be 44.3 nM and the “Ratio (KDR/RET)” value is 118. Also, in data set [1], the IC50 turned out to be 27.8 nM. For the same compound, in data set [2], the MRT stood at 2.7 h, the Cmax came to 3920 ng/mL, the AUC(0-t) worked out at 14500 ng·h/mL and the AUC(0-inf) came out at 14500 ng·h/mL. In addition, in data set [2], the half-life is 1.2 h and the Tmax worked out at 1 h.

Turning to `COc1ncc(CN2C3CC2CN(c2ccc(-c4cc(C#CC(C)(C)O)cn5ncc(C#N)c45)cn2)C3)cc1F` [Embodiment 18, 4-(6-(6-((5-Fluoro-6-methoxypyridin-3-yl)methyl)-3,6-diazabicyclo[3.1.1]heptan-3-yl)pyridin-3-yl)-6-(3-hydroxy-3-methylbut-1-yn-1-yl)pyrazolo[1,5-a]pyridine-3-carbonitrile], the IC50 at RET M918T is 0.66 nM. Besides, inhibition at RET V804M was half-maximal at 1.8 nM (IC50). The compound also showed an IC50 against RET kinase of 0.31 nM. Further, on KDR kinase, it took 23 nM to reach half-maximal inhibition (IC50) and the “Ratio (KDR/RET)” value is 73. The IC50 in data set [1] came to 19 nM. Moreover, in data set [2], the MRT turned out to be 4.61 h, the Cmax was 2790 ng/mL, the AUC(0-t) amounted to 18200 ng·h/mL and the AUC(0-inf) came to 18200 ng·h/mL. In data set [2], the half-life was 2.9 h and the time of peak concentration (Tmax) is 0.5 h.

The compound `C#C[C@@](C)(O)COc1cc(-c2ccc(N3CC4CC(C3)N4Cc3ccc(OC)nc3)nc2)c2c(C#N)cnn2c1` [Embodiment 63, 6-(((R)-2-hydroxy-2-methylbut-3-yn-1-yl)oxy)-4-(6-(6-((6-methoxypyridin-3-yl)methyl)-3,6-diazabicyclo[3.1.1]heptan-3-yl)pyridin-3-yl)pyrazolo[1,5-a]pyridine-3-carbonitrile] came in with an IC50 against RET M918T of 0.21 nM. Besides, on CCDC6-RET, the IC50 came to 0.85 nM. On RET V804M, this compound displayed an IC50 of 0.6 nM. At RET kinase, half-maximal inhibition (IC50) was put at 0.34 nM. In addition, at KDR kinase, the IC50 came to 21.7 nM and the “Ratio (KDR/RET)” value was 63. For the same compound, the IC50 in data set [1] is 14.1 nM. In addition, in data set [2], the MRT was found to be 2.9 h, the Cmax was 2940 ng/mL, the AUC(0-t) stood at 11000 ng·h/mL and the AUC(0-inf) was 11000 ng·h/mL. Besides, in data set [2], the half-life is 1.3 h and the Tmax was 1 h.

`COc1ccc(CN2C3CC2CN(c2ccc(-c4cc(N5CC(C)(C#N)C5)cn5ncc(C#N)c45)cn2)C3)cn1` [Embodiment 77, 6-(3-Cyano-3-methylazetidin-1-yl)-4-(6-(6-((6-methoxypyridin-3-yl)methyl)-3,6-diazabicyclo[3.1.1]heptan-3-yl)pyridin-3-yl)pyrazolo[1,5-a]pyridine-3-carbonitrile] came in with a concentration for half-maximal inhibition (IC50) against RET M918T of 0.41 nM. This compound also had an IC50 against CCDC6-RET of 0.98 nM. This compound also registered an IC50 at RET V804M of 0.6 nM. This compound came in with an IC50 at RET kinase of 0.37 nM. Also, at KDR kinase, the IC50 is 6.9 nM and the “Ratio (KDR/RET)” value is 19. For the same compound, the IC50 in data set [1] came to 4.1 nM. Also, in data set [2], the MRT was 6 h, the Cmax is 4680 ng/mL, the AUC(0-t) was determined as 51600 ng·h/mL and the AUC(0-inf) amounted to 51900 ng·h/mL. For the same compound, in data set [2], the half-life is 3.2 h and the Tmax came out at 0.5 h.

For the origin of these results see US20230406865A1, “CRYSTAL FORM OF FREE BASE OF INHIBITOR CONTAINING BICYCLIC RING DERIVATIVE AND PREPARATION METHOD AND APPLICATION OF CRYSTAL FORM” (SHANGHAI HANSOH BIOMEDICAL CO., LTD., priority 2020, published 2023).
